Data reported in patent US20100311714A1, “1H-IMIDAZO[4,5-c]QUINOLINONE COMPOUNDS” (priority 2009, published 2010).
pIC50: −log10 of the molar value. Like-named read-outs stand apart in the source and are kept apart here.

Legend:
PI3K beta = biological target: T1, PI3K beta (Homo sapiens, UniProt P42338); experiment: PI3K beta kinase assay (Kinase-Glo luminescence); assay type: biochemical
T1 construct: for the full-length p110-b subunit are generated and fused by overlapping PCR; His tag (C); made in house; host or cells: baculovirus BV949; Tn5 (Trichoplusia ni) or TiniPro insect cells
T1 sequence (P42338 with tags, fused parts or gaps limits assumed): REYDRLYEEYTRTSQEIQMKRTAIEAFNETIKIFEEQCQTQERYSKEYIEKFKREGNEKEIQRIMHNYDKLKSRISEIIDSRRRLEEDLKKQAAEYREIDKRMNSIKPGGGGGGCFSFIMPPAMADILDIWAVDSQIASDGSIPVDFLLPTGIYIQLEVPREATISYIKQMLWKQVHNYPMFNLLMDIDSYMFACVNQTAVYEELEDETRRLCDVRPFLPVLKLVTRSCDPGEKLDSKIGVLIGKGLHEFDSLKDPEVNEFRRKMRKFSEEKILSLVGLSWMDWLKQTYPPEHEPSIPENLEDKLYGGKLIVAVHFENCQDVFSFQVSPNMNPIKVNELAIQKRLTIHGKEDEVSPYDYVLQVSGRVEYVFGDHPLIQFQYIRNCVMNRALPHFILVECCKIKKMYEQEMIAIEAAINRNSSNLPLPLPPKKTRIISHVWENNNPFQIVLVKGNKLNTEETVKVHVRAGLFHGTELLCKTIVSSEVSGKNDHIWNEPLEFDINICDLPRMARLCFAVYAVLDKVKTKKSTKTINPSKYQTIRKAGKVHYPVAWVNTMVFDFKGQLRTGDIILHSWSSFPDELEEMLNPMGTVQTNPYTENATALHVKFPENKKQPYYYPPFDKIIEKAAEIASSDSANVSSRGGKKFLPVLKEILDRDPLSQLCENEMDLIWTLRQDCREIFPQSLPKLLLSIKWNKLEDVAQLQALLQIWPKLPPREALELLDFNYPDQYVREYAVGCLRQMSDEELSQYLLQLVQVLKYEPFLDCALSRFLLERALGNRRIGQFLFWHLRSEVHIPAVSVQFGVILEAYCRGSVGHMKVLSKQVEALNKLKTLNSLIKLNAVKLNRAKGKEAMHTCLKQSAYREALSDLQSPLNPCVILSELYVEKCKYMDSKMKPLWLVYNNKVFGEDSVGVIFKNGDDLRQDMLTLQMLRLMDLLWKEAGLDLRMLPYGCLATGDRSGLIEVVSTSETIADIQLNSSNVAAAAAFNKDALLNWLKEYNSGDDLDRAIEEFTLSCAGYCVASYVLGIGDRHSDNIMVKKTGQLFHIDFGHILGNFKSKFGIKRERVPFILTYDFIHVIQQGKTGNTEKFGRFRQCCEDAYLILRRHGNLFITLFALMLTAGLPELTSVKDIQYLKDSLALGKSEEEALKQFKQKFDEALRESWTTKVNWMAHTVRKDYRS
Summary of the method: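 Kinase-Glo luminescence read out ATP left after a 60-min room-temperature reaction, started with ATP (1 μM final) on 25 nM His-tagged p85 iSH2–p110β (BV949) plus 10 μg/mL PI substrate in pH 7.5 Tris buffer. Percent inhibition at eight concentrations was fitted to a four-parameter logistic model for IC50.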

[1] = Parallel Artificial Membrane Permeability Assay (PAMPA) at pH 6.8; assay type: physicochemical
Summary of the method: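 Reported as log Pe, membrane permeability was determined by parallel artificial membrane assay at pH 6.8 per Wohnsland–Faller.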

mTOR = biological target: T2, mTOR (Homo sapiens, UniProt P42345); experiment: Biochemical assay for m-TOR by TR-FRET
T2 construct: purchased Invitrogen Corporation (Carlsbad/Calif., USA) PV4753
T2 sequence (P42345 1360-2549 limits assumed): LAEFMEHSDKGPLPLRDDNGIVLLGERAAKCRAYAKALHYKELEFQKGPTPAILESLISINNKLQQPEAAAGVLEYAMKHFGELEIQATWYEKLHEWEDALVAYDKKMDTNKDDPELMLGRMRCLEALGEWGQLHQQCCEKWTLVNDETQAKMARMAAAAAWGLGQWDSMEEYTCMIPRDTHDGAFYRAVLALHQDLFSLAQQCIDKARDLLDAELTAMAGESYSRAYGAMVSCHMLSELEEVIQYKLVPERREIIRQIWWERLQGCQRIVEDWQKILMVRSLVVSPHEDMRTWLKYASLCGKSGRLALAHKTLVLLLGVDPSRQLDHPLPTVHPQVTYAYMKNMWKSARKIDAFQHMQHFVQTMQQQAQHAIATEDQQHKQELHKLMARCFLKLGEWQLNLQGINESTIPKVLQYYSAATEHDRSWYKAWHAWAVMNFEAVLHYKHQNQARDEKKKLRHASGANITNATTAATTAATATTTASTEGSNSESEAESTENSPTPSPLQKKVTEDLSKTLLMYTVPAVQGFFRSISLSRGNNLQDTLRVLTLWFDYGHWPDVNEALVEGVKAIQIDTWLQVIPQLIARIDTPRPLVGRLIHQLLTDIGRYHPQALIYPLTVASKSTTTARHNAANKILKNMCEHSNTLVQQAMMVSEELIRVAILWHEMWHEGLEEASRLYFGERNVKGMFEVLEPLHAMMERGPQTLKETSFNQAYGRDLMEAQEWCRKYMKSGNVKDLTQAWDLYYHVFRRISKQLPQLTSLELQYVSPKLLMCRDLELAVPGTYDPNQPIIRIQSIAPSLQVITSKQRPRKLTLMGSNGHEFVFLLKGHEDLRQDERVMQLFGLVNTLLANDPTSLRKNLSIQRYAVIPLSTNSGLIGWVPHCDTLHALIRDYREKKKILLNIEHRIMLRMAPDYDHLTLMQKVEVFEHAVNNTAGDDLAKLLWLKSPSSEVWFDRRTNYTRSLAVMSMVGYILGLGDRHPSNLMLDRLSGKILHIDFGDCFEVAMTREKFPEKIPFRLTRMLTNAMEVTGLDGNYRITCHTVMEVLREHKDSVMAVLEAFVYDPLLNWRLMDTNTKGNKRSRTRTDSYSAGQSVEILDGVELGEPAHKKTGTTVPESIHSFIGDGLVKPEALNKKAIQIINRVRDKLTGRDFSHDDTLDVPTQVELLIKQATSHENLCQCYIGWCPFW
Summary of the method: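 mTOR (0.5 nM) phosphorylates GFP-4EBP1 (400 nM) with 8 μM ATP at rt in 50 mM HEPES pH 7.5, 10 mM MnCl2, 50 mM NaCl, 1 mM EGTA, 1 mM DTT; compounds 0.003–10 μM final. EDTA stop with Tb-anti-p4EBP1[pT46] antibody (0.5 nM); TR-FRET read after 15 min against no-enzyme and vehicle controls.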

Q: With `Cc1nc(C(F)(F)F)ccc1-n1c(=O)n(C)c2cnc3ccc(-c4cncc(C(C)(C)O)c4)cc3c21` [Example 33.1, 8-[5-(1-Hydroxy-1-methyl-ethyl)-pyridin-3-yl]-3-methyl-1-(2-methyl-6-trifluoromethyl-pyridin-3-yl)-1,3-dihydro-imidazo[4,5-c]quinolin-2-one] as the compound, how does the pIC50 (PI3K beta; read-out: EPK_PI3Kbeta/IC50) read?
A: 7.16

Q: And the “HT-Perm logPe pH6.8” value [1]?
A: −4.5

Q: And the pIC50 (mTOR; read-out: EPK_mTOR/IC50)?
A: 7.04

Q: Which results are given for `Cc1ncccc1-n1c(=O)n(C)c2cnc3ccc(-c4cncc(NC(C)C)c4)cc3c21` [Example 2.24, 8-(5-Isopropylamino-pyridin-3-yl)-3-methyl-1-(2-methyl-pyridin-3-yl)-1,3-dihydro-imidazo[4,5-c]quinolin-2-one]?
A: pIC50 (PI3K beta; read-out: EPK_PI3Kbeta/IC50): 7.40; HT-Perm logPe pH6.8 [1]: −4.5; pIC50 (mTOR; read-out: EPK_mTOR/IC50): 7.54

Q: With `CCNc1ncc(-c2ccc3ncc4c(c3c2)n(-c2ccc(N3CC[C@@H](O)C3)nc2C)c(=O)n4C)cc1COCC` [Example 34.4, 8-(5-Ethoxymethyl-6-ethylamino-pyridin-3-yl)-1-[6-((R)-3-hydroxy-pyrrolidin-1-yl)-2-methyl-pyridin-3-yl]-3-methyl-1,3-dihydro-imidazo[4,5-c]quinolin-2-one] as the compound, how does the pIC50 (PI3K beta; read-out: EPK_PI3Kbeta/IC50) read?
A: 6.34

Q: What about the “HT-Perm logPe pH6.8” value [1] of the same compound?
A: −4.1

Q: And the pIC50 (mTOR; read-out: EPK_mTOR/IC50)?
A: 6.67

Q: With `CCOc1ccc(-c2ccc3ncc4c(c3c2)n(-c2ccc(C(C)(C)O)nc2C)c(=O)n4C)cn1` [Example 31.4, 8-(6-Ethoxy-pyridin-3-yl)-1-[6-(1-hydroxy-1-methyl-ethyl)-2-methyl-pyridin-3-yl]-3-methyl-1,3-dihydro-imidazo[4,5-c]quinolin-2-one] as the compound, how does the pIC50 (PI3K beta; read-out: EPK_PI3Kbeta/IC50) read?
A: 6.47

Q: And the “HT-Perm logPe pH6.8” value [1]?
A: −3.7

Q: And the pIC50 (mTOR; read-out: EPK_mTOR/IC50)?
A: 7.12

Q: What does the source list for `Cc1nc(C(C)(C)O)ccc1-n1c(=O)n(C)c2cnc3ccc(-c4cnc(N)c(C(F)(F)F)c4)cc3c21` [Example 31.5, 8-(6-Amino-5-trifluoromethyl-pyridin-3-yl)-1-[6-(1-hydroxy-1-methyl-ethyl)-2-methyl-pyridin-3-yl]-3-methyl-1,3-dihydro-imidazo[4,5-c]quinolin-2-one]?
A: pIC50 (PI3K beta; read-out: EPK_PI3Kbeta/IC50): 8.05; HT-Perm logPe pH6.8 [1]: −4.3; pIC50 (mTOR; read-out: EPK_mTOR/IC50): 8.22

Q: With `COc1cc(-c2ccc3ncc4c(c3c2)n(-c2cccnc2C)c(=O)n4C)cnc1C(OC)OC` [Example 2.27, 8-(6-Dimethoxymethyl-5-methoxy-pyridin-3-yl)-3-methyl-1-(2-methyl-pyridin-3-yl)-1,3-dihydro-imidazo[4,5-c]quinolin-2-one] as the compound, how does the pIC50 (PI3K beta; read-out: EPK_PI3Kbeta/IC50) read?
A: 5.91

Q: What about the “HT-Perm logPe pH6.8” value [1] of the same compound?
A: −5.3

Q: And the pIC50 (mTOR; read-out: EPK_mTOR/IC50)?
A: 6.77

Q: With `CCOc1cc(-c2ccc3ncc4c(c3c2)n(-c2ccc(N3CCC3)nc2C)c(=O)n4C)cnc1COC` [Example 23.5, 1-(6-Azetidin-1-yl-2-methyl-pyridin-3-yl)-8-(5-ethoxy-6-methoxymethyl-pyridin-3-yl)-3-methyl-1,3-dihydro-imidazo[4,5-c]quinolin-2-one] as the compound, how does the pIC50 (PI3K beta; read-out: EPK_PI3Kbeta/IC50) read?
A: 6.68

Q: And the “HT-Perm logPe pH6.8” value [1]?
A: −3.8

Q: And the pIC50 (mTOR; read-out: EPK_mTOR/IC50)?
A: 7.60

Q: With `CNc1ncc(-c2ccc3ncc4c(c3c2)n(-c2ccc(N3CC[C@H](O)C3)nc2C)c(=O)n4C)cc1F` [Example 32.2, 8-(5-Fluoro-6-methylamino-pyridin-3-yl)-1-[6-((S)-3-hydroxy-pyrrolidin-1-yl)-2-methyl-pyridin-3-yl]-3-methyl-1,3-dihydro-imidazo[4,5-c]quinolin-2-one] as the compound, how does the pIC50 (PI3K beta; read-out: EPK_PI3Kbeta/IC50) read?
A: 5.97

Q: And the “HT-Perm logPe pH6.8” value [1]?
A: −4.8

Q: And the pIC50 (mTOR; read-out: EPK_mTOR/IC50)?
A: 8.00

Q: Which results are given for `CNc1ncc(-c2ccc3ncc4c(c3c2)n(-c2ccc(N3CC[C@H](O)C3)nc2C)c(=O)n4C)cc1C(F)(F)F` [Example 32.5, 1-[6-((S)-3-Hydroxy-pyrrolidin-1-yl)-2-methyl-pyridin-3-yl]-3-methyl-8-(6-methylamino-5-trifluoromethyl-pyridin-3-yl)-1,3-dihydro-imidazo[4,5-c]quinolin-2-one]?
A: pIC50 (PI3K beta; read-out: EPK_PI3Kbeta/IC50): 7.43; HT-Perm logPe pH6.8 [1]: −4.5; pIC50 (mTOR; read-out: EPK_mTOR/IC50): 8.05

Q: With `CCOc1cc(-c2ccc3ncc4c(c3c2)n(-c2ccc(OCCOC)nc2C)c(=O)n4C)cnc1COC` [Example 22.1, 8-(5-Ethoxy-6-methoxymethyl-pyridin-3-yl)-1-[6-(2-methoxy-ethoxy)-2-methyl-pyridin-3-yl]-3-methyl-1,3-dihydro-imidazo[4,5-c]quinolin-2-one] as the compound, how does the pIC50 (PI3K beta; read-out: EPK_PI3Kbeta/IC50) read?
A: 6.37

Q: And the “HT-Perm logPe pH6.8” value [1]?
A: −3.8

Q: What about the pIC50 (mTOR; read-out: EPK_mTOR/IC50) of the same compound?
A: 7.01

Q: With `COc1ncc(-c2ccc3ncc4c(c3c2)n(-c2ccc(N3CC[C@H](O)C3)nc2C)c(=O)n4C)c(OC)n1` [Example 32.3, 8-(2,4-Dimethoxy-pyrimidin-5-yl)-1-[6-((S)-3-hydroxy-pyrrolidin-1-yl)-2-methyl-pyridin-3-yl]-3-methyl-1,3-dihydro-imidazo[4,5-c]quinolin-2-one] as the compound, how does the pIC50 (PI3K beta; read-out: EPK_PI3Kbeta/IC50) read?
A: 6.72

Q: And the “HT-Perm logPe pH6.8” value [1]?
A: −5.3

Q: What about the pIC50 (mTOR; read-out: EPK_mTOR/IC50) of the same compound?
A: 7.82

Q: With `Cc1nc(C(C)(C)O)ccc1-n1c(=O)n(C)c2cnc3ccc(-c4cncc(C5(C#N)CCC5)c4)cc3c21` [Example 31.8, 1-(5-{1-[6-(1-Hydroxy-1-methyl-ethyl)-2-methyl-pyridin-3-yl]-3-methyl-2-oxo-2,3-dihydro-1H-imidazo[4,5-c]quinolin-8-yl}-pyridin-3-yl)-cyclobutanecarbonitrile] as the compound, how does the pIC50 (PI3K beta; read-out: EPK_PI3Kbeta/IC50) read?
A: 7.52

Q: And the “HT-Perm logPe pH6.8” value [1]?
A: −4.3

Q: What about the pIC50 (mTOR; read-out: EPK_mTOR/IC50) of the same compound?
A: 6.91

Q: With `CCNc1ncc(-c2ccc3ncc4c(c3c2)n(-c2ccc(C(C)(C)O)nc2C)c(=O)n4C)cn1` [Example 31.7, 8-(2-Ethylamino-pyrimidin-5-yl)-1-[6-(1-hydroxy-1-methyl-ethyl)-2-methyl-pyridin-3-yl]-3-methyl-1,3-dihydro-imidazo[4,5-c]quinolin-2-one] as the compound, how does the pIC50 (PI3K beta; read-out: EPK_PI3Kbeta/IC50) read?
A: 6.20

Q: What about the “HT-Perm logPe pH6.8” value [1] of the same compound?
A: −4.6

Q: What about the pIC50 (mTOR; read-out: EPK_mTOR/IC50) of the same compound?
A: 7.68

Q: With `CCOc1cc(-c2ccc3ncc4c(c3c2)n(-c2ccc(N3CCCC3)nc2C)c(=O)n4C)cnc1COC` [Example 25.2, 8-(5-Ethoxy-6-methoxymethyl-pyridin-3-yl)-3-methyl-1-(2-methyl-6-pyrrolidin-1-yl-pyridin-3-yl)-1,3-dihydro-imidazo[4,5-c]quinolin-2-one] as the compound, how does the pIC50 (PI3K beta; read-out: EPK_PI3Kbeta/IC50) read?
A: 6.54

Q: And the “HT-Perm logPe pH6.8” value [1]?
A: −3.9

Q: What about the pIC50 (mTOR; read-out: EPK_mTOR/IC50) of the same compound?
A: 7.12

Q: Which results are given for `Cc1nc(N2CC[C@H](O)C2)ccc1-n1c(=O)n(C)c2cnc3ccc(-c4cncc(OC(C)C)c4)cc3c21` [Example 32.8, 1-[6-((S)-3-Hydroxy-pyrrolidin-1-yl)-2-methyl-pyridin-3-yl]-8-(5-isopropoxy-pyridin-3-yl)-3-methyl-1,3-dihydro-imidazo[4,5-c]quinolin-2-one]?
A: pIC50 (PI3K beta; read-out: EPK_PI3Kbeta/IC50): 6.67; HT-Perm logPe pH6.8 [1]: −3.8; pIC50 (mTOR; read-out: EPK_mTOR/IC50): 7.37

Q: Which results are given for `CNc1ncc(-c2ccc3ncc4c(c3c2)n(-c2ccc(N3CC[C@H](O)C3)nc2C)c(=O)n4C)cn1` [Example 32.1, 1-[6-((S)-3-Hydroxy-pyrrolidin-1-yl)-2-methyl-pyridin-3-yl]-3-methyl-8-(2-methylamino-pyrimidin-5-yl)-1,3-dihydro-imidazo[4,5-c]quinolin-2-one]?
A: pIC50 (PI3K beta; read-out: EPK_PI3Kbeta/IC50): 6.99; HT-Perm logPe pH6.8 [1]: −5; pIC50 (mTOR; read-out: EPK_mTOR/IC50): 8.40

Q: With `COc1ncccc1-n1c(=O)n(C)c2cnc3ccc(-c4cnc5[nH]ccc5c4)cc3c21` [Example 1.2, 1-(2-Methoxy-pyridin-3-yl)-3-methyl-8-(1H-pyrrolo[2,3-b]pyridin-5-yl)-1,3-dihydro-imidazo[4,5-c]quinolin-2-one] as the compound, how does the pIC50 (PI3K beta; read-out: PI3Kbeta/IC50) read?
A: 6.94

Q: And the “HT-perm/logPe pH6.8” value [1]?
A: −4.5

Q: What about the pIC50 (mTOR; read-out: mTOR/IC50) of the same compound?
A: 8.40

Q: With `Cc1ncccc1-n1c(=O)n(C)c2cnc3ccc(-c4cnc(N(C)C)nc4)cc3c21` [Example 2.15, 8-(2-Dimethylamino-pyrimidin-5-yl)-3-methyl-1-(2-methyl-pyridin-3-yl)-1,3-dihydro-imidazo[4,5-c]quinolin-2-one] as the compound, how does the pIC50 (PI3K beta; read-out: PI3Kbeta/IC50) read?
A: 6.44

Q: What about the “HT-perm/logPe pH6.8” value [1] of the same compound?
A: −3.7

Q: And the pIC50 (mTOR; read-out: mTOR/IC50)?
A: 7.28

Q: With `CNc1ncc(-c2ccc3ncc4c(c3c2)n(-c2ccc(N3CC(O)C3)nc2C)c(=O)n4C)cc1C(F)(F)F` [Example 29.4, 1-[6-(3-Hydroxy-azetidin-1-yl)-2-methyl-pyridin-3-yl]-3-methyl-8-(6-methylamino-5-trifluoromethyl-pyridin-3-yl)-1,3-dihydro-imidazo[4,5-c]quinolin-2-one] as the compound, how does the pIC50 (PI3K beta; read-out: EPK_PI3Kbeta/IC50) read?
A: 7.16

Q: And the “HT-Perm logPe pH6.8” value [1]?
A: −5

Q: And the pIC50 (mTOR; read-out: EPK_mTOR/IC50)?
A: 7.92

Q: What does the source list for `CCOc1ncc(-c2ccc3ncc4c(c3c2)n(-c2cccnc2C)c(=O)n4C)cn1` [Example 2.5, 8-(2-Ethoxy-pyrimidin-5-yl)-3-methyl-1-(2-methyl-pyridin-3-yl)-1,3-dihydro-imidazo[4,5-c]quinolin-2-one]?
A: pIC50 (PI3K beta; read-out: PI3Kbeta/IC50): 6.13; HT-perm/logPe pH6.8 [1]: −4.0; pIC50 (mTOR; read-out: mTOR/IC50): 6.78

Q: With `CCNc1cc(-c2ccc3ncc4c(c3c2)n(-c2ccc(N3CCC3)nc2C)c(=O)n4C)cnc1CO` [Example 23.8, 1-(6-Azetidin-1-yl-2-methyl-pyridin-3-yl)-8-(5-ethylamino-6-hydroxymethyl-pyridin-3-yl)-3-methyl-1,3-dihydro-imidazo[4,5-c]quinolin-2-one] as the compound, how does the pIC50 (PI3K beta; read-out: EPK_PI3Kbeta/IC50) read?
A: 7.44

Q: And the “HT-Perm logPe pH6.8” value [1]?
A: −5.7

Q: And the pIC50 (mTOR; read-out: EPK_mTOR/IC50)?
A: 8.40

Q: What does the source list for `CNc1ncc(-c2ccc3ncc4c(c3c2)n(-c2ccc(N(C)CCO)nc2C)c(=O)n4C)cn1` [Example 26.2, 1-{6-[(2-Hydroxy-ethyl)-methyl-amino]-2-methyl-pyridin-3-yl}-3-methyl-8-(2-methylamino-pyrimidin-5-yl)-1,3-dihydro-imidazo[4,5-c]quinolin-2-one]?
A: pIC50 (PI3K beta; read-out: EPK_PI3Kbeta/IC50): 7.00; HT-Perm logPe pH6.8 [1]: −4.9; pIC50 (mTOR; read-out: EPK_mTOR/IC50): 8.52
